Values joined by “and” are separate entries in the source; they are usually repeats but may differ in a detail not shown here. Equal entries are not always repeated. “Also recorded” adds a separate entry of the source. Where two headings read alike, the source gives them in different places.
Tests used:
[1] = system: HIF-1α occupancy at the VEGF HRE; assay: Chromatin immunoprecipitation with anti-HIF1α, U251 cells, VEGF HRE; format: cell-based, human; conditions: DFO-induced, polyamides 1 μM, echinomycin 100 nM
Experimental: Cells were plated on 15 cm diameter culture dishes and left to attach overnight. Polyamides were incubated with the cells for 48 h, and the cells were incubated for an additional 16 h after the addition of DFO to a final concentration of 300 μM. Cells were then treated with 1% formaldehyde for 10 min. Chromatin was isolated and sheared. HIF-1 antibodies (Novus Biologicals) were used to immunoprecipitate HIF-1 bound DNA fragments. After crosslink reversal, PCRs using primers flanking the HRE of VEGF were used to assess enrichment of bound fragments as compared to mock-precipitated (no antibody) controls. PCRs were monitored either using SYBR Green PCR Master Mix (Applied Biosystems) on an ABI 7300 instrument, or directly visualized using gel electrophoresis.
(§1) U251 cells were plated in 15 cm diameter plates and left to attach overnight. Media, time course, DFO, polyamide, echinomycin, and siRNA treatments were as described above. After the 16 hour DFO treatment, cells were treated with 1% formaldehyde for 10 minutes. Chromatin was isolated and sheared. HIF-1α antibodies (Novus Biologicals) were used to immunoprecipitate HIF-1-bound DNA fragments. After crosslink reversal, PCRs using primers targeted to the regions of interest were used to assess enrichment of bound fragments as compared to mock-precipitated (no antibody) controls. PCRs were monitored either using SYBR Green PCR Master Mix (Applied Biosystems) on an ABI 7300 instrument, or directly visualized using gel electrophoresis. The following primers were used: VEGF, L 5′-CCTTTGGGTTTTGCCAGA-3′ (SEQ ID NO:28), R 5′-CCAAGTTTGTGGAGCTGA-3′ (SEQ ID NO:29); CA9, L 5′-AAAAGGGCGCTCTGTGAGT-3′ (SEQ ID NO:30), R 5′-GCTGACTGTGGGGTGTCC-3′ (SEQ ID NO:31); PGK1, L 5′-CCCCTAAGTCGGGAAGGTT-3′ (SEQ ID NO:32), R 5′-[…]-3′ (SEQ ID NO:33).

[2] = system: 5′-ATACGT-3′ sequence within the HRE of the VEGF promoter; assay: Quantitative DNase I footprint titration on pGL2-VEGF-Luc PCR product, VEGF HRE; format: binding; conditions: for Ka at the VEGF HRE: Example 2, pGL2-VEGF-Luc
Experimental: Quantitative DNase I footprint titration experiments were used to determine polyamide-binding affinities (Ka) to the 5′-ATACGT-3′ sequence within the HRE of the VEGF promoter. These experiments were performed using the 5′-^32P-labeled 197 bp PCR amplification product of the plasmid pGL2-VEGF-Luc isolated by non-denaturing gel electrophoresis (16, 21). Quantitative DNase I footprint titration experiments were conducted as reported previously (21).
(§2) Quantitative DNase I footprint titration experiments were used to measure the binding affinities of polyamides 11.1, 11.2, 11.3, and echinomycin on 5′ ^32P-labeled fragments of pGL2-VEGF-Luc and pCSJ-FLT1 containing promoter sequences containing the HREs of VEGF and FLT1, respectively. Quantitative DNase I footprint titration experiments were conducted as reported previously (56).

[3] = system: LDHA; assay: HIF-1 induced gene expression, U251 cells (Table 3), LDHA; format: cell-based, human; conditions: HREs ggcgGACGTGcggg, ctcaCACGTGggtt, E 100 nM
Experimental: (§3) U251 cells were plated in 24-well plates at a density of 20−30×10^3 cells per well (40−60×10^3 cells/ml) in RPMI (ATCC) supplemented with 5% FBS (Irvine Scientific). After 24 hours, polyamides were added to the adhered cells in cell media solutions at the appropriate concentration and incubated with the cells for 48 hours. […] When appropriate, echinomycin was added two hours prior to DFO stimulation. Isolation of RNA and subsequent cDNA synthesis were as previously described (19). When appropriate, HIF-1α siRNA (HIF-1α validated stealth duplex, Invitrogen) or mismatch control siRNA with similar GC content (Invitrogen) was transfected 48 hours prior to RNA isolation. Transfection of siRNA was achieved using Lipofectamine 2000 (Invitrogen) according to manufacturer's protocols. Quantitative real-time RT-PCR was performed using SYBR Green PCR Master Mix (Applied Biosystems) on an ABI 7300 instrument. Target gene mRNA was measured relative to β-glucuronidase as an endogenous control. Primer employed were: VEGF, L 5′[…]-3′ (SEQ ID NO:22), R 5′-GGGTACTCC TGGAAGATGTCC-3′ (SEQ ID NO:23); β-glucuronidase, L 5′-[…]-3′ (SEQ ID NO:24), R 5′-[…]-3′ (SEQ ID NO:25); FLT1, L 5′-[…]-3′ (SEQ ID NO:26), R 5′-[…]-3′ (SEQ ID NO:27).

[4] = system: EDN1; assay: HIF-1 induced gene expression, U251 cells (Table 3), EDN1; format: cell-based, human; conditions: HRE aggcAACGTGcagc; E 100 nM, 11.1 and 11.3 1 μM
Experimental: as §3

[5] = system: PKFB3; assay: HIF-1 induced gene expression, U251 cells (Table 3), PKFB3; format: cell-based, human; conditions: HREs gcggGACGTGacgc, gacgCACGTGggca; E 100 nM, 11.1 and 11.3 1 μM
Experimental: as §3

[6] = system: CA9; assay: HIF-1 induced gene expression, U251 cells (Table 3), CA9; format: cell-based, human; conditions: HRE gctgTACGTGcatt; E 100 nM, 11.1 and 11.3 1 μM
Experimental: as §3

[7] = system: BNIP3; assay: HIF-1 induced gene expression, U251 cells (Table 3), BNIP3; format: cell-based, human; conditions: HRE gccgCACGTGccac, E 100 nM
Experimental: as §3

[8] = system: FLT1 HRE; assay: Quantitative DNase I footprint titration on pCSJ-FLT1, FLT1 HRE; format: binding
Experimental: as §2

[9] = system: TFRC; assay: HIF-1 induced gene expression, U251 cells (Table 3), TFRC; format: cell-based, human; conditions: HRE agcgTACGTGcctc; R siRNA, E 100 nM, 11.1 and 11.3 1 μM; unit not given
Experimental: as §3

[10] = system: 11 HIF-1 induced genes; assay: Quantitative real-time RT-PCR confirmation on the set of 11 HIF-1 induced genes, U251 cells; format: cell-based, human; conditions: E 100 nM, polyamides 1 μM
Description: Quantitative real-time RT-PCR was used to confirm the effects of polyamides 11.1, 11.3, echinomycin, and siRNA treatments on these 11 genes. […] Chromatin immunoprecipitation was used to measure HIF-1 occupancy at the HREs of VEGF and carbonic anhydrase IX (CA9), which were both affected by polyamide 11.1, and PGK1, which was unaffected (FIG. 17). HIF-1α occupancy at the VEGF HRE was decreased by HIF-1α siRNA, echinomycin, and polyamide 11.1, but less so by treatment with HRE-mismatch polyamide 11.3.
as §3

[11] = system: HIF-1 occupancy at the carbonic anhydrase IX (CA9) HRE; assay: Chromatin immunoprecipitation of HIF-1α, U251 cells, CA9 HRE; format: cell-based, human; conditions: DFO-induced, polyamides 1 μM, echinomycin 100 nM
Experimental: as §1

[12] = system: EGLN1; assay: HIF-1 induced gene expression, U251 cells (Table 3), EGLN1; format: cell-based, human; conditions: HRE ggtgTACGTGcaga, E 100 nM
Experimental: as §3

[13] = system: PGK1; assay: HIF-1 induced gene expression, U251 cells (Table 3), PGK1; format: cell-based, human; conditions: HREs gtgaGACGTGcggc, tgccGACGTGcgct, E 100 nM
Experimental: as §3

SMILES	HIF-1α occupancy at the VEGF HRE (chromatin immunoprecipitation) [1]	Ka at the VEGF HRE [2]	HIF-1 induced genes affected: EDN1 [4]	HIF-1 induced genes affected: PKFB3 [5]	HIF-1 induced genes affected: CA9 [6]	Ka at the FLT1 HRE [8]	HIF-1 induced genes affected: TFRC [9]	Genes of the set of 11 HIF-1 induced genes affected (quantitative real-time RT-PCR) [10]	HIF-1 occupancy at the carbonic anhydrase IX locus (chromatin immunoprecipitation) [11]	HIF-1 induced genes affected: LDHA ([3]; 11.1 and 11.3 1 μM)	HIF-1 induced genes affected: BNIP3 ([7]; 11.1 and 11.3 1 μM)	HIF-1 induced genes affected: EGLN1 ([12]; 11.1 and 11.3 1 μM)	HIF-1 induced genes affected: PGK1 ([13]; 11.1 and 11.3 1 μM)	other results
CS[C@H]1SC[C@H]2C(=O)N(C)[C@@H](C(C)C)C(=O)OC[C@@H](NC(=O)c3cnc4ccccc4n3)C(=O)N[C@@H](C)C(=O)N(C)[C@@H]1C(=O)N(C)[C@@H](C(C)C)C(=O)OC[C@@H](NC(=O)c1cnc3ccccc3n1)C(=O)N[C@@H](C)C(=O)N2C [echinomycin, reference compound]	decreased	8.4 (±2.1)×10^6 M^−1	-31.0	−82.0	-9.4	2.9 (±0.7)×10^7 M^−1	−2.3	reduced expression of all genes in this set	decreased	–	–	–	–	HIF-1 induced genes affected: LDHA [3]: −4.4; HIF-1 induced genes affected: BNIP3 [7]: −6.0; HIF-1 induced genes affected: EGLN1 [12]: −19.8; HIF-1 induced genes affected: PGK1 [13]: -3.3
CN(CCCNC(=O)c1cccc(C(=O)O)c1)CCCNC(=O)c1cc(NC(=O)c2cc(NC(=O)c3nc(NC(=O)c4cc(NC(=O)[C@H](N)CCNC(=O)c5nc(NC(=O)c6cc(NC(=O)c7cc(NC(=O)c8sccc8Cl)cn7C)cn6C)cn5C)cn4C)cn3C)cn2C)cn1C [Polyamide 11]	decreased occupancy of HIF-1α at the VEGF HRE; also recorded: inhibited	–	-2.5	1.0	-2.1	–	1.1	4	decreased	1.3	1.3	1.1	-1.2	HIF-1α occupancy at the VEGF HRE (chromatin immunoprecipitation) ([1]; listed as 11.1): decreased; Binding affinities (M-1), 5′-TACGTG-3′ (equilibrium association constants) ([2]; mean of three DNase I footprint titration experiments, standard deviations in parentheses, 197 bp PCR product of pGL2-VEGF-Luc): 2.6 (±0.4) × 10^10 M-1; Ka at the FLT1 HRE ([8]; listed as 11.1): 2.7 (+0.2)×10^9 M^−1 and 2.7 (±0.2)×10^9 M^−1
CN(CCCNC(=O)c1cccc(C(=O)O)c1)CCCNC(=O)c1cc(NC(=O)c2cc(NC(=O)c3cc(NC(=O)c4nc(NC(=O)[C@H](N)CCNC(=O)c5cc(NC(=O)c6cc(NC(=O)c7nc(NC(=O)c8nccn8C)cn7C)cn6C)cn5C)cn4C)cn3C)cn2C)cn1C [Polyamide 23]	more modest effect compared with that of its match congener 11	8.0 (±1.0)×10^8 M^−1	1.3	1.0	-1.1	does not bind the FLT1 HRE with a measurable Ka	1.4	little effect on the expression of all the others	unaffected	1.1	1.0	1.0	1.0	HIF-1α occupancy at the VEGF HRE (chromatin immunoprecipitation) ([1]; listed as 11.3): less so; also recorded: only modestly affected
